{"source": "PubChem BioAssay AID1259409", "about": "(Chemical Carcinogenesis Research Information System (CCRIS), 2018)", "origin": "cited, not measured here", "tested_on": "rodent chemically induced tumor inhibition, incidence and multiplicity", "assay": "CCRIS tumor inhibitor studies", "conditions": "Carcinogen: 7,12-DIMETHYLBENZ[A]ANTHRACENE, 57-97-6", "source_text": "The CCRIS database contains chemical records with carcinogenicity, mutagenicity, tumor promotion, and tumor inhibition test results. It was developed by the National Cancer Institute (NCI). Data are derived from studies cited in primary journals, current awareness tools, NCI reports, and other sources. Test results have been reviewed by experts in carcinogenesis and mutagenesis.\nCCRIS provides historical information from the years 1985 - 2011. It is no longer updated.\nThis is an archive assay for CCRIS tumor inhibitor studies.", "note": "Where “and” joins values, the source holds several entries; their conditions need not be identical. Identical values can stand only once.", "data": [{"smiles": "CCCCCCC(=O)O[C@H]1CC[C@H]2[C@@H]3CCC4=CC(=O)CC[C@]4(C)[C@H]3CC[C@]12C", "values": [{"measurement": "tumour outcome (control, treated, inhibition, significance)", "setting": "Dose [Inhibitor]: 0, 6 MG/100 G BW 1/WK FOR 150 D BEGINNING POST CARCINOGEN TREATMENT (STUDY DURATION: 150 D), Route [Inhibitor]: SUBCUTANEOUS, Species: RAT, Strain/Sex: WISTAR/FEMALE, Target Tissue: Type of Lesion: MAMMARY GLAND: ADENOCARCINOMA, Dose [Carcinogen]: 4 MG IN 0.1 ML OF SESAME OIL INJECTED ONCE INTO THE EXPOSED MAMMARY TISSUE OF HYPERPROLACTINEMIC RATS ON DAY 73 OF AGE, Promoter: NONE USED", "result": "8/11 (73%), 2/8 (25%), 66%, p<0.05"}]}, {"smiles": "O=CCc1c[nH]c2ccccc12", "values": [{"measurement": "tumour outcome (control, treated, inhibition, significance)", "setting": "Dose [Inhibitor]: 0.1 MMOL IN 1 ML DIMETHYL SULFOXIDE ONCE 20 HR PRIOR TO CARCINOGEN ADMINISTRATION FOLLOWED BY A 14 WK OBSERVATION PERIOD, Route [Inhibitor]: GAVAGE, Species: RAT, Strain/Sex: SPRAGUE-DAWLEY/FEMALE, Target Tissue: Type of Lesion: MAMMARY GLAND: TUMOR, Dose [Carcinogen]: 12 MG IN 1 ML OLIVE OIL ONCE, Promoter: NONE USED", "result": "64%, 36%, 44%, not significant"}]}, {"smiles": "COc1ccc2c(c1)CCC(c1ccccc1)=C2c1ccc(OCCN2CCCC2)cc1", "values": [{"measurement": "tumour outcome (control, treated, inhibition, significance)", "setting": "Dose [Inhibitor]: 1 MG/KG 3/WK BEGINNING 2 D AFTER DMBA TREATMENT (STUDY DURATION: 5 MO), Route [Inhibitor]: SUBCUTANEOUS, Species: RAT, Strain/Sex: SPRAGUE-DAWLEY/FEMALE, Target Tissue: Type of Lesion: MAMMARY GLAND: ADENOCARCINOMA, FIBROADENOMA, Dose [Carcinogen]: 5 MG IN 0.5 ML CORN OIL AT 50 D OF AGE, Promoter: NONE USED", "result": "56%, 10%, 82%, not calculated and 34%, 1%, 97%, not calculated"}, {"measurement": "tumour outcome (control, treated, inhibition, significance)", "setting": "Dose [Inhibitor]: 1 MG/KG 3/WK BEGINNING 2 D AFTER DMBA TREATMENT (STUDY DURATION: 5 MO), Route [Inhibitor]: SUBCUTANEOUS, Species: RAT, Strain/Sex: SPRAGUE-DAWLEY/FEMALE, Target Tissue: Type of Lesion: MAMMARY GLAND: ADENOCARCINOMA, FIBROADENOMA, Dose [Carcinogen]: 10 MG IN 0.5 ML CORN OIL AT 50 D OF AGE, Promoter: NONE USED", "result": "58%, 27%, 53%, not calculated and 38%, 10%, 74%, not calculated"}, {"measurement": "tumour outcome (control, treated, inhibition, significance)", "setting": "Dose [Inhibitor]: 1 MG/KG 3/WK BEGINNING 15 D AFTER DMBA TREATMENT (STUDY DURATION: 5 MO), Route [Inhibitor]: SUBCUTANEOUS, Species: RAT, Strain/Sex: SPRAGUE-DAWLEY/FEMALE, Target Tissue: Type of Lesion: MAMMARY GLAND: ADENOCARCINOMA, FIBROADENOMA, Dose [Carcinogen]: 5 MG IN 0.5 ML CORN OIL AT 50 D OF AGE, Promoter: NONE USED", "result": "56%, 22%, 61%, not calculated and 34%, 5%, 85%, not calculated"}]}, {"smiles": "C[C@@]12CCc3occc3[C@H]1CC[C@@]13C[C@@H](CC[C@H]12)[C@@](O)(CO)C3", "values": [{"measurement": "tumour outcome (control, treated, inhibition, significance)", "setting": "Dose [Inhibitor]: 0, 0.2 G/KG OF DIET OF 50:50 MIXTURE OF KAHWEOL AND CAFESTOL FOR 14 WK BEGINNING 1 WK PRIOR TO CARCINOGEN TREATMENT (STU, Route [Inhibitor]: ORAL, Species: HAMSTER, Strain/Sex: SYRIAN/FEMALE, Target Tissue: Type of Lesion: BUCCAL POUCH: TUMOR, Dose [Carcinogen]: 0.5% SOLUTION IN MINERAL OIL PAINTED ON LEFT BUCCAL POUCH 3/WK FOR 13 WK, Promoter: NONE USED", "result": "14/14 (100%), 14/14 (100%), 0%, not significant"}, {"measurement": "tumour outcome (control, treated, inhibition, significance)", "setting": "Dose [Inhibitor]: 0, 2 G/KG OF DIET OF 50:50 MIXTURE OF KAHWEOL AND CAFESTOL FOR 14 WK BEGINNING 1 WK PRIOR TO CARCINOGEN TREATMENT (STUDY, Route [Inhibitor]: ORAL, Species: HAMSTER, Strain/Sex: SYRIAN/FEMALE, Target Tissue: Type of Lesion: BUCCAL POUCH: TUMOR, Dose [Carcinogen]: 0.5% SOLUTION IN MINERAL OIL PAINTED ON LEFT BUCCAL POUCH 3/WK FOR 13 WK, Promoter: NONE USED", "result": "14/14 (100%), 14/15 (93%), 7%, not significant"}]}, {"smiles": "C=C1CC[C@H]2[C@@]3(C)CCC[C@]2(C)[C@H]1CO[C@@H](C(=O)OC)[C@H](CC(=O)O)C(=O)OC[C@]1(C)CCC[C@]2(C)[C@@H](CO[C@@H](C(=O)OC)[C@H](CC(=O)O)C(=O)OC3)C(=C)CC[C@@H]12", "values": [{"measurement": "tumour outcome (control, treated, inhibition, significance)", "setting": "Dose [Inhibitor]: 0, 1 MG 2/WK FOR 20 WK APPLIED 10 MIN PRIOR TO EACH PROMOTER DOSE (STUDY DURATION: 20 WK), Route [Inhibitor]: DERMAL, Species: MOUSE, Strain/Sex: CD-1/FEMALE, Target Tissue: Type of Lesion: SKIN: TUMOR, Dose [Carcinogen]: 100 UG ONCE, Promoter: OKADAIC ACID, 78111-17-8", "result": "73%, 80%, -10%, not significant"}, {"measurement": "tumour outcome (control, treated, inhibition, significance)", "setting": "Dose [Inhibitor]: 0, 5 MG 2/WK FOR 20 WK APPLIED 10 MIN PRIOR TO EACH PROMOTER DOSE (STUDY DURATION: 20 WK), Route [Inhibitor]: DERMAL, Species: MOUSE, Strain/Sex: CD-1/FEMALE, Target Tissue: Type of Lesion: SKIN: TUMOR, Dose [Carcinogen]: 100 UG ONCE, Promoter: OKADAIC ACID, 78111-17-8", "result": "73%, 93%, -27%, not significant"}]}]}
